Source: US20100080757A1, “METHOD OF DETECTING ABNORMAL TISSUE” (priority 2005, published 2010)

Assays:
normal prostate vessels = test: DCE MRI of the normal prostate with vasoactive drugs; type: in vivo, person
Protocol: A person with no history of prostate cancer and normal PSA, volunteered for multiple DCE MRI exams of the prostate to evaluate vasoactive modulation of the normal blood flow. Three separate examinations were performed several weeks apart. The studies were performed on a Siemens 1.5T Symphony scanner. The DCE MRI examination included, Siemens's tfiperf, (inversion fisp) sequence. TR=3000, TE=1.27, TI=400 flip angle=50. Gadolinium Veresetamide […], injection at 2 cc/sec for a total of 20 cc. Images were obtained every 3 seconds for a total period of 5 minutes and every minute thereafter for 15 minutes.
All three studies were performed with identical MRI sequences and parameters. The first study was performed without a vasoactive drug but the second and third study were repeated with administration of a vasoactive drug, silfenadil or pseudoephedrine. […] The third DCE MRI was performed identical to the second study with the oral administration of 25 mg of silfenadil one hour before the study, and the administration of 60 mg of pseudoephedrine 20 minutes preceding the gadolinium injection. The absorption rate of each drug is quite predictable according to the literature so the initial part of the study performed before the pseudoephedrine was vasodilated and the subsequent study had vasodilator combined with a vasoconstrictor.
Data analysis was performed using ANALYZE data management software (Analyze Direct, Inc., Lenexa, Kans., 66215, USA) and Excel (Microsoft, Seattle, Wash.).
Data graphs were normalized to the blood flow of the iliac artery. The data was acquired during the five minute period following intravenous gadolinium injection and thereby provides a semiquantitative assessment of blood flow characteristics, see below data discussion.

woodchuck hepatoma = test: FDG PET uptake curves with and without phenylephrine; type: in vivo; conditions: PET with FDG and phenylephrine vs baseline FDG alone
Description: FIG. 8 is a plot illustrating FDG uptake curves in woodchuck hepatoma from two PET studies.

hepatic artery = test: Hepatic artery blood flow after intravenous acetazolamide; type: in vivo; conditions: 100 mg/kg intravenously; for Blood flow in the hepatic artery: before about 2.8 ml/min
Description: The amount of vasoactive agent administered to the subject to cause a noticeable increase or decrease in blood flow to the tissue of interest will depend on the specific agent administered to the subject.

VX2 tumor = test: Functional CT perfusion before and after acetazolamide, tumor peripheral rim; type: in vivo, New Zealand White rabbits; conditions: peripheral rim of untreated tumor, day 28; acetazolamide 50 mg/kg IV; mean±SE
Description: (§1) All animal procedures were approved by the Institutional Animal Care and Use Committee at Case Western Reserve University. The VX2 tumor, a xenograft hepatoma model used frequently in radiological studies, was donated by S, Nahum Goldberg MD, (Beth Israel Medical Center, Boston, Mass.). Tumor was initiated in livers of 5 male New Zealand White rabbits weighing 3 kg (Covance, Princeton, N.J.) using methods described previously. The tumor was first propagated in the thigh of a donor rabbit, where a suspension of tumor cells was injected intramuscularly into one thigh. The tumor was grown until the palpated size reached approximately 1 cm^3 and was harvested from anesthetized animals using sterile techniques. Pieces of the tumor (4 mm^3) were cut, placed in 10% DMSO in pure calf's serum, and stored in liquid nitrogen.
(§2) For implantation in the liver, frozen tumor was rapidly thawed and washed. Rabbits were anesthetized using a combination of xylazine (5 mg/kg), ketamine (50 mg/kg), acepromazine (2 mg/kg) and atropine (0.2 mg/kg). The abdomen was shaved and cleaned, and the liver was exposed. A piece of tumor was then inserted into the liver parenchyma and the incisions were closed. During recovery, all animals received Buprenex (0.5 mg/kg) for pain management and a subcutaneous injection of 25 ml of 0.9% saline. Additional Buprenex and saline were given as needed.
(§3) Liver perfusion maps were created 28 days after initiation of the tumor by tracking contrast enhancement on eight sequential CT images (acquired on the Mx8000 IDT, Philips Medical scanner) before and after IV injection of acetazolamide. During each CT exam, first an unenhanced baseline scan was carried out. […]
(§4) A CT perfusion software package available from the scanner manufacturer was used for all perfusion measurements. […] Arterial and portal perfusion were calculated by measuring the slope of the time-density curve before (arterial) and after (venous) peak splenic enhancement and normalizing by the vascular input. A mean percent change in perfusion before and after CAI injection was calculated. […]

normal liver = test: Functional CT perfusion before and after acetazolamide, normal liver; type: in vivo, New Zealand White rabbits; conditions: acetazolamide 50 mg/kg IV, mean±SE
Description: as §1, §2, §3, §4

small hepatoma = test: MRI perfusion study, baseline and AZ enhanced; type: in vivo
Description: FIGS. 7(a-b) are plots illustrating MRI perfusion study with the solid line showing flow in a small hepatoma and the dotted line showing flow in the normal parenchyma. FIG. 7a illustrates a baseline perfusion study showing quicker and higher enhancement of tumor vs normal liver.

[1] = system: inflammatory pseudotumor (benign liver lesion); test: Contrast-enhanced CT before and after acetazolamide in a biopsy patient; type: in vivo, Humans
Protocol: FIG. 10 is a plot illustrating CT perfusion analysis of a biopsy proven inflammatory pseudotumor before and after acetazolamide (AZ) administration (AZ 250 mg+50 mL Optiray 320).
Several preliminary studies have been carried out using a protocol approved by the Institutional Review Board (IRB) of University Hospitals of Cleveland (FIGS. 10-11). One patient undergoing routine biopsy was screened using a pre- and post-acetazolamide injection contrast-enhanced CT scans. Following the scans, a biopsy of the tissue was taken and sent for routine histological analysis. On the image data, standard region of interest (ROI) analysis was used to obtain signal intensity values (in Hounsfield units or HU) over 600 seconds in normal liver and the mass. […] Our general hypothesis is that normal vessels either in normal liver or benign lesions respond to the vasodilatation, so the decrease in conspicuity results from dilatation of both vessel sites. […] This was confirmed by histological diagnosis. A patient with a suspected recurrent tumor underwent a similar protocol as above. Again, on the baseline scan, the lesion enhances less than the normal liver. […] Instead of creating a “steal”, the flow increases flow in the lesion indicating it has normal vessels consistent with benign inflammation. Again, the results were confirmed with CT-guided biopsy.

[2] = system: suspected recurrent tumor in liver; test: MR of suspected recurrent liver tumor without and after Diamox; type: in vivo, Humans; conditions: post Diamox scan vs baseline scan; lesion confirmed benign inflammation
Description: FIGS. 11(a-c) are MR of suspected recurrent tumor in liver without (A) and after (B) vasodilator (Diamox), and image-guided biopsy confirmation (C). In A and B, the solid line corresponds to the lesion and the “dashed” line corresponds to the normal liver.
Several preliminary studies have been carried out using a protocol approved by the Institutional Review Board (IRB) of University Hospitals of Cleveland (FIGS. 10-11). One patient undergoing routine biopsy was screened using a pre- and post-acetazolamide injection contrast-enhanced CT scans. Following the scans, a biopsy of the tissue was taken and sent for routine histological analysis. On the image data, standard region of interest (ROI) analysis was used to obtain signal intensity values (in Hounsfield units or HU) over 600 seconds in normal liver and the mass. […] Our general hypothesis is that normal vessels either in normal liver or benign lesions respond to the vasodilatation, so the decrease in conspicuity results from dilatation of both vessel sites. […] This was confirmed by histological diagnosis. A patient with a suspected recurrent tumor underwent a similar protocol as above. Again, on the baseline scan, the lesion enhances less than the normal liver. […] Instead of creating a “steal”, the flow increases flow in the lesion indicating it has normal vessels consistent with benign inflammation. […]

liver = conditions: Taki et al.; without systemic effects; cited from earlier work
kidney = conditions: Taki et al.; without systemic effects; cited from earlier work
lung cancer = test: FDG PET of lung cancer before and after oral pseudoephedrine; type: in vivo; conditions: after oral pseudoephedrine; baseline SUV 4.8
Description: FIGS. 9(a-b) are baseline CT (A) and corresponding PET (B) images of lung cancer. FIGS. 9(c-d) are images illustrating Tumor after oral pseudoephedrine. The tumor has not changed size on CT but has increased PET signal. SUV increased from 4.8 to 8.8, presumably due to increased blood flow to tumor and capture of FDG.

[3] = between 21 seconds and 72 seconds, 25 mg oral one hour prior
[4] = gadolinium after sildenafil, FIG. 13 legend

CCCc1nn(C)c2c(=O)[nH]c(-c3cc(S(=O)(=O)N4CCN(C)CC4)ccc3OCC)nc12 [sildenafil]
Enhancement of the prostate gland on MRI image (normal prostate vessels; after sildenafil 50 mg and gadolinium, vs study without Viagra (FIG. 16)): greater enhancement of the gland
Increase of lateral lobe enhancement vs baseline study (normal prostate vessels; [3]): 78%
Increase of medial lobe enhancement vs baseline study (normal prostate vessels; [3]): 73%
Enhancement greater than the enhanced undilated study, medial lobe (normal prostate vessels; [4]): 78%
Maximum enhancement greater than the enhanced, undilated study, lateral lobe (normal prostate vessels; [4]): 73%
Increase of enhancement curve vs baseline enhancement curve (normal prostate vessels; throughout the entire scan period of 5 minutes (300 seconds), 25 mg oral one hour prior): more than 70%

CNC[C@H](O)c1cccc(O)c1 [phenylephrine]
FDG uptake in lesion (woodchuck hepatoma): increased uptake

CC(=O)Nc1nnc(S(N)(=O)=O)s1 [acetazolamide]
Increase in the blood flow through the hepatic artery (hepatic artery): about 18%
Blood flow in the hepatic artery (hepatic artery; after about 10 minutes): about 3.1 ml/min
Blood flow in the hepatic artery (hepatic artery; after about 20 minutes): about 3.3 ml/min
Change in arterial perfusion (VX2 tumor): −31±9%
Change in total perfusion (VX2 tumor): −30±7%
Change in venous perfusion (VX2 tumor): −20±12%
Change in arterial perfusion (normal liver): −3±33%
Change in total perfusion (normal liver): 41±18%
Change in venous perfusion (normal liver): 31±18%
Enhancement of tumor vs normal liver (small hepatoma): decrease in enhancement of the tumor compared to the normal liver
Conspicuity ([1]; after AZ injection (AZ 250 mg), 32 HU before, benign lesion): 15 HU
Blood flow / signal intensity ([1]; post-acetazolamide contrast-enhanced CT, normal liver and mass): increases in the normal liver and in the mass
Enhancement of the lesion [2]: increases relative to the normal liver
Increase in blood flow to the liver (liver): 75+/−36%
Increase in blood flow to the kidney (kidney): 33+/−11%

CN[C@@H](C)[C@@H](O)c1ccccc1 [pseudoephedrine]
SUV (FDG PET signal of tumor) (lung cancer): 8.8
Reduction in the enhancement (normal prostate vessels; after 14 minutes, pseudoephedrine 60 mg oral on top of silfenadil 25 mg oral): about 20%
Intensity in the equilibration phase (normal prostate vessels; at 14 minutes, pseudoephedrine 60 mg oral after Sildenafil 25 mg oral): definite decrease in intensity
